Results from patent US20230295234A1, “ANTIMICROBIAL PEPTIDOMIMETICS” (SPEXIS AG, priority 2020, published 2023).
Bridge positions count the residues as written; N and C are the ends. Square brackets hold non-standard residues; d marks the D form. Peptide text beside a SMILES is read from it. Pro(4R-NH2) = N[C@H]1CN[C@H](C(=O)O)C1; Gly(N-2-aminoethyl) = NCCNCC(=O)O; Cha = N[C@@H](CC1CCCCC1)C(=O)O; Gly(N(CH2)3NH2) = NCCCNCC(=O)O; Pen = CC(C)(S)[C@H](N)C(=O)O; dDab = NCC[C@@H](N)C(=O)O; Dab = NCC[C@H](N)C(=O)O

Key:
[1] = system: human red blood cells (hRBC); test: Hemolysis of human red blood cells; type: cell-based; settings: red cells of human, 1 h
In short: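 Percent hemolysis is OD540 of peptide-treated supernatant relative to water-lysed cells. Each peptide was tested at 200 μg/mL against 20% (v/v) washed human erythrocytes. Incubation was 1 h at 37 °C, 300 rpm.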

[2] = system: Escherichia coli MCR-1 Af 45; settings: MCR-1 Af 45
In short: (§1)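 Peptides were made up as 1 mg/mL stocks in sterile water. Colonies in 0.85% saline were set to 0.5 McFarland, then diluted in cation-adjusted Mueller-Hinton II broth to about 5×10^5 CFU/mL. Inoculum was combined with two-fold serial peptide dilutions in water containing 0.002% (final) polysorbate 80.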

[3] = system: Klebsiella pneumoniae SSI3010; settings: SSI3010
In short: as §1

[4] = system: Escherichia coli ATCC 25922; settings: ATCC 25922
In short: as §1

For `CC[C@H](C)[C@H](NC(=O)CN(CCCN)C(=O)[C@@H](NC(=O)CNCCCN)C(C)C)C(=O)N[C@H](C(=O)N[C@@H](Cc1ccc(O)cc1)C(=O)N[C@@H]1C(=O)N[C@@H](CC(N)=O)C(=O)N[C@@H](CCCNC(=N)N)C(=O)N[C@@H](CCN)C(=O)N[C@@H]([C@@H](C)O)C(=O)N[C@H](CCN)C(=O)N[C@@H](CCCCN)C(=O)N[C@H](C(=O)N[C@@H](CCN)C(=O)N[C@@H](CCCNC(=N)N)C(=O)N[C@@H](CC2CCCCC2)C(=O)O)CSSC1(C)C)[C@@H](C)CC` [Example 22, Norn-Val-Norn-Ile-Ile-Tyr-Pen-Asn-Arg-Dab-Thr-^DDab-Lys-Cys-Dab-Arg-Cha] (H-[Gly(N(CH2)3NH2)]V[Gly(N(CH2)3NH2)]IIY[Pen]NR[Dab]T[dDab]KC[Dab]R[Cha]-OH; disulfide 7-14), the “Hemolysis at 0.2 g/L” value [1] was 0%, the “Escherichia coli MCR-1 Af 45 MIC” value [2] was at most 0.03125 µg/mL and the “Klebsiella pneumoniae SSI3010 MIC” value [3] was 0.0625 µg/mL. The “Escherichia coli ATCC 25922 MIC” value [4] was 0.0625 µg/mL.
In the case of `CC[C@H](C)[C@H](NC(=O)[C@@H](NC(=O)[C@@H]1C[C@@H](N)CN1C(=O)[C@@H](NC(=O)[C@@H]1C[C@@H](N)CN1)C(C)C)[C@@H](C)CC)C(=O)N[C@@H](Cc1ccc(O)cc1)C(=O)N[C@@H]1C(=O)N[C@@H](CC(N)=O)C(=O)N[C@@H](CCCNC(=N)N)C(=O)N[C@@H](CCN)C(=O)N[C@@H]([C@@H](C)O)C(=O)N[C@H](CCN)C(=O)N[C@@H](CCCCN)C(=O)N[C@H](C(=O)N[C@@H](CCC(N)=O)C(=O)N[C@@H](CCCNC(=N)N)C(=O)N[C@@H](Cc2ccc(O)cc2)C(=O)O)CSSC1(C)C` [Example 23, Pro((4R)NH2)-Val-Pro((4R)NH2)-Ile-Ile-Tyr-Pen-Asn-Arg-Dab-Thr-^DDab-Lys-Cys-Gln-Arg-Tyr] (H-[Pro(4R-NH2)]V[Pro(4R-NH2)]IIY[Pen]NR[Dab]T[dDab]KCQRY-OH; disulfide 7-14), the “Hemolysis at 0.2 g/L” value [1] was 0%, the “Escherichia coli MCR-1 Af 45 MIC” value [2] was 0.25 µg/mL and the “Klebsiella pneumoniae SSI3010 MIC” value [3] was 0.25 µg/mL. The “Escherichia coli ATCC 25922 MIC” value [4] was 0.25 µg/mL.
`CC[C@H](C)[C@H](NC(=O)[C@@H](NC(=O)[C@@H]1CCCN1C(=O)[C@@H](NC(=O)[C@@H]1C[C@@H](N)CN1)C(C)C)[C@@H](C)CC)C(=O)N[C@@H](Cc1ccc(O)cc1)C(=O)N[C@@H]1C(=O)N[C@@H](CC(N)=O)C(=O)N[C@@H](CCCNC(=N)N)C(=O)N[C@@H](CCN)C(=O)N[C@@H]([C@@H](C)O)C(=O)N[C@H](CCN)C(=O)N[C@@H](CCCCN)C(=O)N[C@H](C(=O)N[C@@H](CCN)C(=O)N[C@@H](CCCNC(=N)N)C(=O)N[C@@H](Cc2ccc(O)cc2)C(=O)O)CSSC1(C)C` [Example 24, Pro(4R)NH2)-Val-Pro-Ile-Ile-Tyr-Pen-Asn-Arg-Dab-Thr-^DDab-Lys-Cys-Dab-Arg-Tyr] (HELM PEPTIDE1{[N[C@H]1CN[C@H](C(=O)[*:2])C1].V.P.I.I.Y.[Pen].N.R.[Dab].T.[NCC[C@@H](N[*:1])C(=O)[*:2]].K.C.[Dab].R.Y}$PEPTIDE1,PEPTIDE1,7:R3-14:R3$$$V2.0) was tested, and the “Hemolysis at 0.2 g/L” value [1] was 0%, the “Escherichia coli MCR-1 Af 45 MIC” value [2] was 0.125 µg/mL and the “Klebsiella pneumoniae SSI3010 MIC” value [3] was 0.25 µg/mL. For the same compound, the “Escherichia coli ATCC 25922 MIC” value [4] was 0.125 µg/mL.
In the case of `CC[C@H](C)[C@H](NC(=O)[C@@H](NC(=O)[C@@H]1C[C@@H](N)CN1C(=O)[C@@H](NC(=O)[C@@H]1CCCN1)C(C)C)[C@@H](C)CC)C(=O)N[C@@H](Cc1ccc(O)cc1)C(=O)N[C@@H]1C(=O)N[C@@H](CC(N)=O)C(=O)N[C@@H](CCCNC(=N)N)C(=O)N[C@@H](CCN)C(=O)N[C@@H]([C@@H](C)O)C(=O)N[C@H](CCN)C(=O)N[C@@H](CCCCN)C(=O)N[C@H](C(=O)N[C@@H](CCN)C(=O)N[C@@H](CCCNC(=N)N)C(=O)N[C@@H](Cc2ccc(O)cc2)C(=O)O)CSSC1(C)C` [Example 25, Pro-Val-Pro((4R)NH2)-Ile-Ile-Tyr-Pen-Asn-Arg-Dab-Thr-^DDab-Lys-Cys-Dab-Arg-Tyr] (HELM PEPTIDE1{P.V.[N[C@@H]1C[C@@H](C(=O)[*:2])N([*:1])C1].I.I.Y.[Pen].N.R.[Dab].T.[NCC[C@@H](N[*:1])C(=O)[*:2]].K.C.[Dab].R.Y}$PEPTIDE1,PEPTIDE1,7:R3-14:R3$$$V2.0), the “Hemolysis at 0.2 g/L” value [1] was 0%, the “Escherichia coli MCR-1 Af 45 MIC” value [2] was at most 0.03125 µg/mL and the “Klebsiella pneumoniae SSI3010 MIC” value [3] was 0.0625 µg/mL. The “Escherichia coli ATCC 25922 MIC” value [4] was at most 0.03125 µg/mL.
`CC[C@H](C)[C@H](NC(=O)[C@@H](NC(=O)[C@@H]1C[C@@H](N)CN1C(=O)[C@@H](NC(=O)[C@@H]1C[C@@H](N)CN1)C(C)C)[C@@H](C)CC)C(=O)N[C@@H](Cc1ccc(O)cc1)C(=O)N[C@@H]1C(=O)N[C@@H](CC(N)=O)C(=O)N[C@@H](CCCNC(=N)N)C(=O)N[C@@H](CCN)C(=O)N[C@@H]([C@@H](C)O)C(=O)N[C@H](CCN)C(=O)N[C@@H](CCCCN)C(=O)N[C@H](C(=O)N[C@@H](CCN)C(=O)N[C@@H](CCCNC(=N)N)C(=O)N[C@@H](Cc2ccc(O)cc2)C(=O)O)CSSC1(C)C` [Example 26, Pro((4R)NH2)-Val-Pro((4R)NH2)-Ile-Ile-Tyr-Pen-Asn-Arg-Dab-Thr-^DDab-Lys-Cys-Dab-Arg-Tyr] (H-[Pro(4R-NH2)]V[Pro(4R-NH2)]IIY[Pen]NR[Dab]T[dDab]KC[Dab]RY-OH; disulfide 7-14) was tested, and the “Hemolysis at 0.2 g/L” value [1] was 0%, the “Escherichia coli MCR-1 Af 45 MIC” value [2] was 0.125 µg/mL and the “Klebsiella pneumoniae SSI3010 MIC” value [3] was 0.25 µg/mL. For the same compound, the “Escherichia coli ATCC 25922 MIC” value [4] was 0.25 µg/mL.
For `CC[C@H](C)[C@H](NC(=O)[C@@H](NC(=O)[C@@H]1CCCN1C(=O)[C@@H](NC(=O)CNCCN)C(C)C)[C@@H](C)CC)C(=O)N[C@@H](Cc1ccc(O)cc1)C(=O)N[C@@H]1C(=O)N[C@@H](CC(N)=O)C(=O)N[C@@H](CCCNC(=N)N)C(=O)N[C@@H](CCN)C(=O)N[C@@H]([C@@H](C)O)C(=O)N[C@H](CCN)C(=O)N[C@@H](CCCCN)C(=O)N[C@H](C(=O)N[C@@H](CCN)C(=O)N[C@@H](CCCNC(=N)N)C(=O)N[C@@H](Cc2ccc(O)cc2)C(=O)O)CSSC1(C)C` [Example 27, Ndab-Val-Pro-Ile-Ile-Tyr-Pen-Asn-Arg-Dab-Thr-^DDab-Lys-Cys-Dab-Arg-Tyr] (HELM PEPTIDE1{[NCCNCC(=O)[*:2]].V.P.I.I.Y.[Pen].N.R.[Dab].T.[NCC[C@@H](N[*:1])C(=O)[*:2]].K.C.[Dab].R.Y}$PEPTIDE1,PEPTIDE1,7:R3-14:R3$$$V2.0), the “Hemolysis at 0.2 g/L” value [1] was 0%, the “Escherichia coli MCR-1 Af 45 MIC” value [2] was 0.0625 µg/mL and the “Klebsiella pneumoniae SSI3010 MIC” value [3] was 0.125 µg/mL. The “Escherichia coli ATCC 25922 MIC” value [4] was 0.0625 µg/mL.
With `CC[C@H](C)[C@H](NC(=O)CN(CCN)C(=O)[C@@H](NC(=O)[C@@H]1CCCN1)C(C)C)C(=O)N[C@H](C(=O)N[C@@H](Cc1ccc(O)cc1)C(=O)N[C@@H]1C(=O)N[C@@H](CC(N)=O)C(=O)N[C@@H](CCCNC(=N)N)C(=O)N[C@@H](CCN)C(=O)N[C@@H]([C@@H](C)O)C(=O)N[C@H](CCN)C(=O)N[C@@H](CCCCN)C(=O)N[C@H](C(=O)N[C@@H](CCN)C(=O)N[C@@H](CCCNC(=N)N)C(=O)N[C@@H](Cc2ccc(O)cc2)C(=O)O)CSSC1(C)C)[C@@H](C)CC` [Example 28, Pro-Val-Ndab-Ile-Ile-Tyr-Pen-Asn-Arg-Dab-Thr-^DDab-Lys-Cys-Dab-Arg-Tyr] (HELM PEPTIDE1{P.V.[NCCN(CC(=O)[*:2])[*:1]].I.I.Y.[Pen].N.R.[Dab].T.[NCC[C@@H](N[*:1])C(=O)[*:2]].K.C.[Dab].R.Y}$PEPTIDE1,PEPTIDE1,7:R3-14:R3$$$V2.0) the “Hemolysis at 0.2 g/L” value [1] was 0%, the “Escherichia coli MCR-1 Af 45 MIC” value [2] was 0.125 µg/mL and the “Klebsiella pneumoniae SSI3010 MIC” value [3] was 0.125 µg/mL. The “Escherichia coli ATCC 25922 MIC” value [4] was 0.25 µg/mL.
For `CC[C@H](C)[C@H](NC(=O)CN(CCN)C(=O)[C@@H](NC(=O)CNCCN)C(C)C)C(=O)N[C@H](C(=O)N[C@@H](Cc1ccc(O)cc1)C(=O)N[C@@H]1C(=O)N[C@@H](CC(N)=O)C(=O)N[C@@H](CCCNC(=N)N)C(=O)N[C@@H](CCN)C(=O)N[C@@H]([C@@H](C)O)C(=O)N[C@H](CCN)C(=O)N[C@@H](CCCCN)C(=O)N[C@H](C(=O)N[C@@H](CCN)C(=O)N[C@@H](CCCNC(=N)N)C(=O)N[C@@H](Cc2ccc(O)cc2)C(=O)O)CSSC1(C)C)[C@@H](C)CC` [Example 29, Ndab-Val-Ndab-Ile-Ile-Tyr-Pen-Asn-Arg-Dab-Thr-^DDab-Lys-Cys-Dab-Arg-Tyr] (H-[Gly(N-2-aminoethyl)]V[Gly(N-2-aminoethyl)]IIY[Pen]NR[Dab]T[dDab]KC[Dab]RY-OH; disulfide 7-14), the “Hemolysis at 0.2 g/L” value [1] was 0%, the “Escherichia coli MCR-1 Af 45 MIC” value [2] was 0.25 µg/mL and the “Klebsiella pneumoniae SSI3010 MIC” value [3] was 0.25 µg/mL. For the same compound, the “Escherichia coli ATCC 25922 MIC” value [4] was 0.25 µg/mL.
For `CC[C@H](C)[C@H](NC(=O)[C@@H](NC(=O)[C@@H]1CCCN1C(=O)[C@@H](NC(=O)CNC)C(C)C)[C@@H](C)CC)C(=O)N[C@@H](Cc1ccc(O)cc1)C(=O)N[C@H]1CSSC[C@@H](C(=O)N[C@@H](CCN)C(=O)N[C@@H](CCCNC(=N)N)C(=O)N[C@@H](Cc2ccc(O)cc2)C(=O)O)NC(=O)[C@H](CCCCN)NC(=O)[C@@H](CCN)NC(=O)[C@H]([C@@H](C)O)NC(=O)[C@H](CCN)NC(=O)[C@H](CCCNC(=N)N)NC(=O)[C@H](CC(N)=O)NC1=O` [Example 30] (HELM PEPTIDE1{[Sar].V.P.I.I.Y.C.N.R.[Dab].T.[NCC[C@@H](N[*:1])C(=O)[*:2]].K.C.[Dab].R.Y}$PEPTIDE1,PEPTIDE1,7:R3-14:R3$$$V2.0), the “Hemolysis at 0.2 g/L” value [1] was 0%, the “Escherichia coli MCR-1 Af 45 MIC” value [2] was 0.125 µg/mL and the “Klebsiella pneumoniae SSI3010 MIC” value [3] was 0.25 µg/mL. For the same compound, the “Escherichia coli ATCC 25922 MIC” value [4] was 0.125 µg/mL.
